Measured values as given in ChEMBL document CHEMBL5241112, “Insights into the recent progress in the medicinal chemistry of pyranopyrimidine analogs” (RSC Med Chem, 2022).
In brackets after ≈: the same amount, converted by molar mass.

How the values were obtained:
Alpha-glucosidase = Alpha-glucosidase (Saccharomyces cerevisiae S288c, UniProt P53341+P38158+P07265); experiment: Inhibition of Saccharomyces cerevisiae alpha-glucosidase assessed as decrease in release of p-nitrophenol using pNPG as substrate incubated for 10 mins by spectroscopic analysis; assay type: protein assay
HepG2 [1] = experiment: Anticancer activity against human HepG2 cells assessed as reduction in cell viability incubated for 48 hrs by MTT assay; assay type: functional, cell-based; conditions: HepG2, 48 h
[2] = molecular target: T1, Free fatty acid receptor 3 (Homo sapiens, UniProt O14843); experiment: Agonist activity at FFA3 (unknown origin) expressed in human Flp-In-293 cells assessed as inhibition of forskolin-stimulated cAMP accumulation incubated for 30 mins by Lance cAMP assay; assay type: cell-based
T1 sequence (O14843 whole entry): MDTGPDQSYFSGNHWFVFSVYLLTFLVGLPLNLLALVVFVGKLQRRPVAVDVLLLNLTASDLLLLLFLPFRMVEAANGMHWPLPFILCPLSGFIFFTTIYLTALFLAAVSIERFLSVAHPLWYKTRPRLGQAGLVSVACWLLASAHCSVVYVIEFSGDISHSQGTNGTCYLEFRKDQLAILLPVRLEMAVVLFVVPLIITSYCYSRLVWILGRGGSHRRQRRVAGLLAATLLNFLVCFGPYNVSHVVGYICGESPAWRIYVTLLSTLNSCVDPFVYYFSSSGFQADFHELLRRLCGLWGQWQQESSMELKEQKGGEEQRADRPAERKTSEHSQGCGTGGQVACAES

[3] = molecular target: Hydroxycarboxylic acid receptor 2 (Homo sapiens, UniProt Q8TDS4); experiment: Agonist activity at human HCA2 expressed in human Flp-In-293 cells assessed as inhibition of forskolin-stimulated cAMP accumulation incubated for 30 mins by Lance cAMP assay; assay type: cell-based
A549 = experiment: Anticancer activity against human A549 cells assessed as reduction in cell viability incubated for 24 hrs by MTT assay; assay type: functional, cell-based; conditions: A549, 24 h
MCF7 [4] = experiment: cells; conditions: Homo sapiens, MCF7, 48 h
Aspergillus fumigatus = experiment: Antifungal activity against Aspergillus fumigatus MTCC 227 assessed as fungal growth inhibition by broth microdilution method; assay type: functional
[5] = test system: Mycobacterium tuberculosis; experiment: Antitubercular activity against Mycobacterium tuberculosis H37Rv assessed as bacterial growth inhibition at 250 ug/ml; assay type: functional
[6] = test system: Mycobacterium tuberculosis; experiment: Antitubercular activity against Mycobacterium tuberculosis H37Rv assessed as bacterial growth inhibition at 100 ug/ml; assay type: functional
Plasmodium falciparum = experiment: microbe, parasite or virus in culture
Clostridium tetani = experiment: Antibacterial activity against Clostridium tetani MTCC 449 assessed as bacterial growth inhibition by broth microdilution method; assay type: functional
Staphylococcus aureus [7] = experiment: Antibacterial activity against Staphylococcus aureus MTCC 96 assessed as bacterial growth inhibition incubated for 24 hrs by broth microdilution method; assay type: functional
Staphylococcus aureus [8] = experiment: Antibacterial activity against Staphylococcus aureus MLS-16 MTCC 2940 assessed as bacterial growth inhibition incubated for 24 hrs by broth microdilution method; assay type: functional
Candida albicans = experiment: Antifungal activity against Candida albicans assessed as diameter of inhibition zone incubated for 48 hrs by agar well diffusion method; assay type: functional
Staphylococcus aureus [9] = experiment: Antibacterial activity against Staphylococcus aureus NCIM 2654 assessed as diameter of inhibition zone incubated for 24 hrs by agar well diffusion method; assay type: functional
[10] = Antioxidant activity assessed as DPPH radical scavenging activity at 12 ug incubated for 30 mins by spectrophotometric analysis; assay type: functional; conditions: dose 12.0 µg
Aspergillus ochraceus [11] = experiment: Antifungal activity against Aspergillus ochraceus AUCC-230 assessed as diameter of inhibition zone incubated for 24 hrs by disc diffusion method; assay type: functional
Bacillus cereus = experiment: Antibacterial activity against Bacillus cereus ATCC-14579 assessed as diameter of inhibition zone incubated for 24 hrs by disc diffusion method; assay type: functional
Staphylococcus aureus [12] = experiment: Antibacterial activity against Staphylococcus aureus NCTC-7447 assessed as diameter of inhibition zone incubated for 24 hrs by disc diffusion method; assay type: functional
Penicillium chrysogenum [13] = experiment: Antifungal activity against Penicillium chrysogenum AUCC-530 assessed as diameter of inhibition zone incubated for 24 hrs by disc diffusion method; assay type: functional
Proteus mirabilis = experiment: Antibacterial activity against Proteus mirabilis NTCC-289 assessed as diameter of inhibition zone incubated for 24 hrs by disc diffusion method; assay type: functional
Serratia marcescens = experiment: Antibacterial activity against Serratia marcescens IMRU-70 assessed as diameter of inhibition zone incubated for 24 hrs by disc diffusion method; assay type: functional
[14] = Antioxidant activity assessed as H2O2 radical scavenging activity; assay type: functional
[15] = Antioxidant activity assessed as DPPH radical scavenging activity; assay type: functional
[16] = Antioxidant activity assessed as NO radical scavenging activity; assay type: functional
Penicillium chrysogenum [17] = experiment: Antifungal activity against Penicillium chrysogenum assessed as diameter of inhibition zone by disc diffusion method; assay type: functional
Aspergillus ochraceus [18] = experiment: Antifungal activity against Aspergillus ochraceus assessed as diameter of inhibition zone by disc diffusion method; assay type: functional
Staphylococcus aureus [19] = experiment: Antibacterial activity against Staphylococcus aureus assessed as diameter of inhibition zone; assay type: functional
Salmonella typhimurium [20] = experiment: Antibacterial activity against Salmonella typhimurium assessed as diameter of inhibition zone; assay type: functional, Salmonella enterica subsp. enterica serovar Typhimurium
Salmonella typhimurium [21] = experiment: Antibacterial activity against Salmonella typhimurium MTCC 98 assessed as bacterial growth inhibition by broth microdilution method; assay type: functional, Salmonella enterica subsp. enterica serovar Typhimurium; conditions: Salmonella enterica
Escherichia coli [22] = experiment: Antibacterial activity against Escherichia coli assessed as diameter of inhibition zone; assay type: functional
Bacillus subtilis = experiment: Antibacterial activity against Bacillus subtilis assessed as diameter of inhibition zone; assay type: functional
Escherichia coli [23] = experiment: Antibacterial activity against Escherichia coli MTCC 723 assessed as diameter of inhibition zone at 0.1 mg/ml incubated for 24 hrs by agar well diffusion method; assay type: functional; conditions: read-out: DIZ
HepG2 [24] = experiment: Anticancer activity against human HepG2 cells assessed as reduction in cell viability incubated for 24 hrs by MTT colorimetric assay; assay type: functional, cell-based; conditions: HepG2, 24 h
MCF7 [25] = experiment: Anticancer activity against human MCF7 cells assessed as reduction in cell viability incubated for 24 hrs by MTT colorimetric assay; assay type: functional, cell-based; conditions: MCF7, 24 h
HCT-116 = experiment: Anticancer activity against human HCT-116 cells assessed as reduction in cell viability incubated for 24 hrs by MTT colorimetric assay; assay type: functional, cell-based; conditions: HCT-116, 24 h

Sequence of Hydroxycarboxylic acid receptor 2 (Q8TDS4 whole entry): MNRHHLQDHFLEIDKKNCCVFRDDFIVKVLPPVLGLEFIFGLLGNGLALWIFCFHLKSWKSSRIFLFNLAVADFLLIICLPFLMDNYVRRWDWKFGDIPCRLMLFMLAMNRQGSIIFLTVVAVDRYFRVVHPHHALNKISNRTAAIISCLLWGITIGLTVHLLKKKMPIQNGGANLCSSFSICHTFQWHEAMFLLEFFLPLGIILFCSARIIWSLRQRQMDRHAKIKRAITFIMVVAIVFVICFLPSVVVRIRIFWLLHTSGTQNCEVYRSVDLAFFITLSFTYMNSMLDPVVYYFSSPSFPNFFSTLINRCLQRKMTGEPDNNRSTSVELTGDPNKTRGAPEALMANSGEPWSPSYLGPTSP

COc1cc(/C=C/C(=O)C2=C(/C=C/c3ccc(O)c(OC)c3)Oc3[nH]c(=O)[nH]c(=O)c3C2c2cccc([N+](=O)[O-])c2)ccc1O (stereo not drawn)
IC50 (Alpha-glucosidase): 9700 nM

COc1ccc(C2CC(=O)Oc3[nH]c(=O)[nH]c(=O)c32)cc1 (stereo not drawn)
IC50 (HepG2 [1]): 10600 nM

CCCc1cc(=O)oc2[nH]c(=S)[nH]c(=O)c12
EC50 [2]: 220 nM
EC50 [3]: 51 nM

CCOC(=O)C1=C(C)Oc2nc(C)n(Cc3cn(-c4ccc(C(C)=O)cc4)nn3)c(=O)c2C1c1ccccc1 (stereo not drawn)
IC50 (A549): 6740 nM

COc1cc(C2CC(=O)Oc3[nH]c(=O)[nH]c(=O)c32)ccc1O (stereo not drawn)
IC50 (MCF7 [4]): 8900 nM
IC50 (HepG2 [1]): 10600 nM

CCOC(=O)C1=C(C)Oc2nc(C)n(Cc3cn(-c4ccc([N+](=O)[O-])cc4)nn3)c(=O)c2C1c1cccs1 (stereo not drawn)
IC50 (A549): 1850 nM

CCc1cc(=O)oc2[nH]c(=S)[nH]c(=O)c12
EC50 [2]: 220 nM
EC50 [3]: 51 nM

CCOC(=O)C1=C(N)Oc2[nH]c(=S)[nH]c(=O)c2C1c1c(C)nn(-c2ccccc2)c1-n1ccnc1 (stereo not drawn)
MIC (Aspergillus fumigatus): 200 µg/mL (≈ 407 µM)
inhibition at 250 µg/mL [5]: 37%
inhibition at 100 µg/mL [6]: 30%
IC50 (Plasmodium falciparum): 0.97 µg/mL (≈ 1.97 µM)
MIC (Clostridium tetani): 100 µg/mL (≈ 203 µM)

Cc1cc2c(c(=O)o1)C(c1ccc(F)cc1)c1c(Nc3ccc([N+](=O)[O-])cc3)ncnc1O2 (stereo not drawn)
MIC (Staphylococcus aureus [7]): 7.8 µg/mL (≈ 17.5 µM)
MIC (Staphylococcus aureus [8]): 15.6 µg/mL (≈ 34.9 µM)

Cc1cc(=O)oc2[nH]c(=S)[nH]c(=O)c12
EC50 [2]: 220 nM
EC50 [3]: 51 nM

O=c1[nH]c(=O)c2c(CCCCCl)cc(=O)oc2[nH]1
EC50 [3]: 51 nM

Cc1n[nH]c2c1C(c1ccc([N+](=O)[O-])cc1)c1c([nH]c(=O)[nH]c1=O)O2 (stereo not drawn)
diameter of the inhibition zone (DIZ) (Candida albicans): 12 mm
diameter of the inhibition zone (DIZ) (Staphylococcus aureus [9]): 20 mm
Activity [10]: 98.4%

CCOC(=O)c1nc2c3c(ncn2n1)Oc1c(c(=O)oc2ccccc12)C3c1ccc(Cl)cc1 (stereo not drawn)
diameter of the inhibition zone (DIZ) (Aspergillus ochraceus [11]): 15 mm
diameter of the inhibition zone (DIZ) (Bacillus cereus): 19 mm
diameter of the inhibition zone (DIZ) (Staphylococcus aureus [12]): 18 mm
diameter of the inhibition zone (DIZ) (Penicillium chrysogenum [13]): 13 mm
diameter of the inhibition zone (DIZ) (Proteus mirabilis): 21 mm
diameter of the inhibition zone (DIZ) (Serratia marcescens): 21 mm

Cc1cc(C(C)(C)C)c(O)c(C(C)(C)C)c1 [BUTYLATED HYDROXYTOLUENE]
IC50 [14]: 65.33 µg/mL (≈ 296 µM)
IC50 [15]: 37.52 µg/mL (≈ 170 µM)
IC50 [16]: 56.9 µg/mL (≈ 258 µM)

NYSTATIN
inhibition zone (IZ) (Aspergillus ochraceus [11]): 22 mm
inhibition zone (IZ) (Penicillium chrysogenum [13]): 24 mm
inhibition zone (IZ) (Penicillium chrysogenum [17]): 24 mm
inhibition zone (IZ) (Aspergillus ochraceus [18]): 22 mm

CCn1cc(C(=O)O)c(=O)c2cc(F)c(N3CCNCC3)cc21 [NORFLOXACIN]
diameter of the inhibition zone (DIZ) (Staphylococcus aureus [19]): 14 mm
diameter of the inhibition zone (DIZ) (Salmonella typhimurium [20]): 16 mm
MIC (Salmonella typhimurium [21]): 10 µg/mL (≈ 31.3 µM)
diameter of the inhibition zone (DIZ) (Escherichia coli [22]): 20 mm
diameter of the inhibition zone (DIZ) (Bacillus subtilis): 24 mm

C1=COc2ncncc2C1
zone of inhibition at 100 µg/mL (Escherichia coli [23]): 13.1 mm

N#CC1=C(N)Oc2[nH]nc(-c3ccccc3)c2C1c1coc2ccccc2c1=O (stereo not drawn)
IC50 (HepG2 [24]): 57.3 µg/mL (≈ 150 µM)
IC50 (MCF7 [25]): 69.8 µg/mL (≈ 183 µM)
IC50 (HCT-116): 54.1 µg/mL (≈ 142 µM)

COc1cc(/C=C/C(=O)CC(=O)/C=C/c2ccc(O)c(OC)c2)ccc1O [CURCUMIN]
IC50 (Alpha-glucosidase): 44800 nM

CCCCc1cc(=O)oc2[nH]c(=S)[nH]c(=O)c12
EC50 [2]: 220 nM
EC50 [3]: 51 nM
